Test results taken from patent US20220313686A1, “PHARMACEUTICAL COMPOSITIONS COMPRISING A COMBINATION OF OPIOID ANTAGONISTS” (YISSUM RESEARCH DEVELOPMENT COMPANY OF THE HEBREW …, priority 2019, published 2022).

Key:
[1] = tested on: opioid receptors; conditions: metabolite of naltrexone; cited from earlier work
[2] = Passive loading of naloxone and naltrexone into MLV's liposomes; assay type: physicochemical
[3] = tested on: opioid receptors; conditions: in vivo; cited from earlier work
[4] = target: μ-receptor (Homo sapiens, UniProt P35372); conditions: in vitro; cited from earlier work
μ-receptor, sequence (P35372 whole entry, species assumed): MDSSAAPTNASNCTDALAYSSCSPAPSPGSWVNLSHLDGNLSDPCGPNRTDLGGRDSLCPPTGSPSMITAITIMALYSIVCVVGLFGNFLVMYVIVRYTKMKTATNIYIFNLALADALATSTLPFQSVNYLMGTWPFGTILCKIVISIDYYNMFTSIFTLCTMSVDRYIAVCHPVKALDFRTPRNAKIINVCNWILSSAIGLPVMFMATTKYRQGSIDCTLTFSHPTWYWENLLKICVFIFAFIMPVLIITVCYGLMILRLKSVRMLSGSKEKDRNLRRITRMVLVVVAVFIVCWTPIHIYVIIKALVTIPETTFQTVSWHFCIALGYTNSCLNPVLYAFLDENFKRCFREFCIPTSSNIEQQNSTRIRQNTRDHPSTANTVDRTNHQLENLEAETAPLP

[5] = target: μ-opioid receptor (Homo sapiens, UniProt P35372); conditions: cited from earlier work
μ-opioid receptor, sequence (P35372 whole entry, species assumed): as above

[6] = target: T1, κ-receptor (Homo sapiens, UniProt P41145); conditions: in vitro; cited from earlier work
T1 sequence (P41145 whole entry): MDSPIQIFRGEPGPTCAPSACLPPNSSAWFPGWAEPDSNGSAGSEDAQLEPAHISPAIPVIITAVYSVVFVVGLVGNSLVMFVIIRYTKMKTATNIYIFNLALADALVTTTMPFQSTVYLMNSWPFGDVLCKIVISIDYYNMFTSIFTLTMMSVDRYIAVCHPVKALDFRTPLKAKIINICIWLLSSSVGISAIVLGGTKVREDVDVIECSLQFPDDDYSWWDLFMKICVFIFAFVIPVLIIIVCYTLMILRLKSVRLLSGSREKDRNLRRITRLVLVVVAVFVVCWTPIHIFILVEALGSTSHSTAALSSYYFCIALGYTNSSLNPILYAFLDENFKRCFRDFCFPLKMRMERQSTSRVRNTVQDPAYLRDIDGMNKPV

[7] = target: T2, δ-receptor (Homo sapiens, UniProt P41143); conditions: in vitro; cited from earlier work
T2 sequence (P41143 whole entry): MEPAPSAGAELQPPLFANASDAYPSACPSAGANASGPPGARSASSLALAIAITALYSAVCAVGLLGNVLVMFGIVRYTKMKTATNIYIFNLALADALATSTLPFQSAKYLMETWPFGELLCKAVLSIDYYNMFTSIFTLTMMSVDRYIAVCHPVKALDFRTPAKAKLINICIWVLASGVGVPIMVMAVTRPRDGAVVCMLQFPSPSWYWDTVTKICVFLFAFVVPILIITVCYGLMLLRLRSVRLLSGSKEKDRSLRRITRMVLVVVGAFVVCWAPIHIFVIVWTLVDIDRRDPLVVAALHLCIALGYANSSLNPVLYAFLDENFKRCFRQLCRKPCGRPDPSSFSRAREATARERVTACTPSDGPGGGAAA

[8] = target: T1, κ-receptor; conditions: in vitro; cited from earlier work; remark: listed apart in the source
[9] = target: T2, δ-receptor; conditions: in vitro; cited from earlier work; remark: listed apart in the source

Oc1ccc2c3c1O[C@H]1[C@H](O)CC[C@@]4(O)[C@@H](C2)N(CC2CC2)CC[C@]314 [60-naltrexol]
antagonist activity [1]: active antagonist

C=CCN1CC[C@]23c4c5ccc(O)c4O[C@H]2C(=O)CC[C@@]3(O)[C@H]1C5 [Naloxone, 17-allyl-4,5α-epoxy-3,14-dihydroxymorphinan-6-one]
Liposomal naloxone conc. [2]: 6.8 mg/mL

O=C1CC[C@@]2(O)[C@H]3Cc4ccc(O)c5c4[C@@]2(CCN3CC2CC2)[C@H]1O5 [Naltrexone, 17-(cyclopropylmethyl)-4,5α-epoxy-3,14-dihydroxymorphinan-6-one]
duration of effect [3]: last about a day | Liposomal naltrexone conc. [2]: 8.1 mg/mL

NC(=O)c1ccc2c(c1O)[C@]13CCN(CC4CC4)[C@H](C2)[C@]1(O)CCC(=O)C3 [Samidorphan, 3-carboxamido-4-hydroxynaltrexone]
action at μ-receptor [4]: antagonist | greater affinity at mu-opioid receptor compared to naltrexone [5]: five | affinity at μ-receptor ([5]; in vitro): high affinity | affinity at κ-receptor [6]: high affinity | affinity at δ-receptor [7]: high affinity | action at κ-receptor [8]: partial agonist | action at δ-receptor [9]: partial agonist
